B1: tRNA-Carrot-IV-39: complex of tRNA-Carrot-2 (SEQ ID No: 4) RNA aptamer and IV-39 fluorophore (nucleic acid)
chain: GCCCGGAUAGCUCAGUCGGUAGAGCAGCGGCCGGAAGAUUGUAAACACGCCGAAAGGCGGACACUUCCGGCCGCGGGUCCAGGGUUCAAGUCCCUGUUCGGGCGCCA
modifications: RNA aptamer in complex with IV-39 fluorophore, further chemistry not given here

Experiments:
[1] = Fluorescence activation of IV-39 fluorophore by Carrot-1 and Carrot mutants (function detection of nucleic acid aptamers); format: biochemical; conditions: for Activation fold: 1 μM IV-39 incubated with 5 μM Carrot-1 mutant RNA
Description: (§1) (5) Function detection of nucleic acid aptamers Carrot or Carrot mutant nucleic acid aptamer molecules were prepared according to common experimental method (I), 5 μM of nucleic acid aptamer molecules and 1 μM of fluorophore molecules were incubated in detection buffer (40 mM HEPES, pH 7.4, 125 mM KCl, 5 mM MgCl2, 5% DMSO), and Synergy Neo2 multifunctional microplate reader was used for detecting and obtaining the maximum excitation peak and the maximum emission peak of the fluorescence of the nucleic acid aptamer-fluorophore molecule complex. The Synergy Neo2 multifunctional microplate reader was used again for detecting the fluorescence intensity of the aptamer-fluorophore molecule complex under its maximum excitation and emission conditions. Control sample (1 μM of fluorophore molecules without nucleic acid aptamer) was measured under the same condition, and the ratio of fluorescence intensity was calculated. […] By using Synergy Neo2 multifunctional microplate reader, it was detected that the fluorescence intensity of the complex was 5720 when it was excited at 524±10 nm and emitted under the emission condition of 580 nm±10 nm, while fluorescence intensity of the control sample (1 μM of IV-39 fluorophore molecules) under the same detection condition was 20, so the activation multiple of Carrot-1 nuclear acid aptamer to IV-39 fluorophore molecule was 286.
In order to detect the fluorescence activation of IV-39 fluorophore by different Carrot mutant, the Carrot-1 sequence was mutated according to Table 1. The Carrot RNA containing different mutations were prepared according to the commonly used experimental method (1). 1 μM IV-39 was incubated with 5 μM Carrot-1 mutant RNA and their fluorescence activation folds were determined according to the commonly used experimental method (5). […] Several Carrot-1 mutants containing 2-5 mutations still retained strong fluorescence activation of IV-39 (>100 times) (Table 3). In summary, many Carrot-1 mutants containing single and multiple mutants still retain the ability to activate the fluorescence of IV-39 fluorophore.

Carrot-1 RNA aptamer = assay: Properties of Carrot-1 RNA aptamer with different fluorophores (spectra, extinction coefficient, quantum yield, activation fold); format: biochemical; conditions: for fluorescence intensity: excited at 524±10 nm, emission 580 nm±10 nm, 5 μM Carrot-1 + 1 μM IV-39, or control 1 μM IV-39 alone
Description: as §1
In order to detect the spectral properties of the Carrot-IV-39 complex, Carrot-1 (SEQ ID NO: 2) RNA was prepared according to the commonly used experimental method (1). 1 μM IV-39 with 5 μM Carrot-1 was incubated.
Carrot-1 RNA aptamer was prepared according to the commonly used experimental methods (1), and was used to detect the properties of IV-39 analogues upon Carrot binding, including the fluorescence spectrum, extinction coefficient, quantum yield and fluorescence activation fold. From the data shown in the table, Carrot-1 still could activate the fluorescence of IV-39 analogues.

[2] = test system: tdMCP-NanoLuc-tdMCP fusion protein; conditions: 293T/17 cells, 1 μM IV-4, 20 μM Furimazine
Description: In order to use Carrot to detect RNA-protein interactions, the interaction between phage capsid protein MCP and its binding sequence MS2 RNA was used as an example. […] The cDNAs encoding tdMCP protein (the dimeric form of MCP, SEQ ID No: 32) and NanoLuc protein (SEQ ID No: 33) were synthesized. Primers P29 and P30, P33 and P34 were used to amplify tdMCP gene fragment, respectively. Primers P35 and P36 were used to amplify NanoLuc gene fragment. The obtained fragments were inserted into the HindIII and XhoI sites of pCDNA3.1 hygro(+) to generate pCDNA3.1 hygro(+)-tdMCP-NanoLuc-tdMCP according to the commonly used experimental method (4), the sequence of the fusion protein encoded by which is SEQ ID No:34.
After 24 h of transfection, 1 μM IV-4 fluorophore was added to label Carrot. Imaging was taken immediately after addition of 20 μM Furimazine to the medium.

Carrot-1 = assay: Binding constant of Carrot-1 and IV-39 by fluorescence titration; conditions: 20 nM Carrot-1 incubated with different concentrations of IV-39
Description: In order to detect the binding constant of Carrot-1 and IV-39, 20 nM Carrot-1 was incubated with different concentrations of IV-39 and their fluorescence was determined.

293T/17 cells = assay: RNA labeling in mammalian cells using tRNA-Carrot-2 and IV-39; format: cell-based
Excerpt: In major imaging experiments of the examples, a Leica SP8 confocal laser microscope was used for photographing, HCXPL APO 63.0×1.47 oil lens and HyD detector were used, and various lasers, such as 405 nm, 457 nm, 476 nm, 488 nm, 497 nm, 514 nm nm, 561 nm and 633 nm, were used for imaging; complexes formed by each Carrot and dye molecules were imaged by laser close to the wavelength corresponding to the maximum excitation peak. For others, GFP used a 488 nm laser; Hoechst and DAPI fluorescence used a 405 nm laser; and Rhodamine used a 561 nm laser.
In order to use Carrot and IV-39 for RNA labeling in mammalian cells, the reported Pepper and Corn aptamer (binding to HBC599 and DFHO fluorophores, respectively) were used as the controls (Chen et al. Nature Biotechnology 2019. 37: 1287-1293; Song et al. Nature Chemical Biology 2017. 13: 1187-1194). The mammalian cell expression plasmids expressing the RNA aptamers were constructed. cDNAs encoding tRNA-Carrot-2 (SEQ ID No: 4), tRNA-Pepper (SEQ ID No: 22) and tRNA-Corn (SEQ ID No: 21) were synthesized and amplified using the primers P7 and P8, and the primers P9 and P10 were used to amplify pEGFP-N1 to remove the promoter and multiple cloning site regions. […] Fluorescence imaging was performed according to the commonly used experimental method (3).

[3] = complex of 5 μM Carrot-1 and 1 μM IV-39

| Molecule | Activation fold ([1]; multiple mutations) | Activation fold ([1]; single mutation) | activation multiple of aptamer to IV-39 fluorophore molecule ([1]; 5 μM Carrot-1, 1 μM IV-39, ratio of fluorescence intensity to fluorophore alone) | maximum emission peak (Carrot-1 RNA aptamer; [3]) | maximum excitation peak (Carrot-1 RNA aptamer; [3]) | fluorescence intensity (Carrot-1 RNA aptamer) | fluorescence of Carrot-IV-4 complex by luminescence energy transfer (BRET) [2] | Kd (Carrot-1) | fluorescence intensity compared with tRNA-Pepper-HBC599 and tRNA-Corn-DFHO complexes (293T/17 cells; 0.5 μM IV-39, 0.5 μM HBC599, 10 μM DFHO) | fluorescence in cells (293T/17 cells; 0.5 μM IV-39, 24 h after transfection, with or without 20 mM Mg2+) |
| --- | --- | --- | --- | --- | --- | --- | --- | --- | --- | --- |
| Carrot-1: RNA aptamer with the sequence of SEQ ID NO: 1, General Formula Carrot structure N1AGAUUGUAAACAN14-N15-N16GACACUN23 (GGGAAGAUUGUAAACACGCCGAAAGGCGGACACUUCCC; chemistry not given here) | 286 fold | 286 fold | 286 | 580 nm | 524 nm | 5720 | could not emit obvious orange-red fluorescence | – | – | – |
| CN1C(=O)/C(=C/c2ccc(N(C)CCO)cc2)N=C1/C=C/c1ccccc1 [IV-39] | – | – | – | – | – | 20 | – | 58 nM | – | – |
| B1 | – | – | – | – | – | – | – | – | markedly higher | bright orange fluorescence |

From patent US20230133910A1, “NEW METHOD FOR DETECTING AND QUANTIFYING RNA” (EAST CHINA UNIVERSITY OF SCIENCE AND TECHNOLOGY, priority 2020, published 2023)
